Read-outs that look alike come from different tables or passages of the source. Numbered stars: 1 amine (or outer) side, 2 acyl side, 3 side chain; on linkers, the order of the positions; unused ones are H or OH. Square brackets hold non-standard residues; d marks the D form. Peptide text beside a SMILES is read from it. NMeAla(5-Cl-benzothien-3-yl) = CN[C@@H](Cc1csc2ccc(Cl)cc12)C(=O)O; X13 = CN([C@@H](Cc1cn(Cc2ccc(Br)cc2)c2ccc(F)cc12)C(=O)[*:2])[*:1]; X19 = CN([C@@H](Cc1cn(Cc2ccc(Cl)cc2)c2ccccc12)C(=O)[*:2])[*:1]; X18 = Cc1ccc(Cn2cc(C[C@@H](C(=O)[*:2])N(C)[*:1])c3ccccc32)cc1; Ala(1-cyclohexenyl) = N[C@@H](CC1=CCCCC1)C(=O)O; Butanoyl(2R-oxy,4-CN) = N#CCC[C@@H](O)C(=O)O; X21 = CN([C@@H](CC1=CCCC1)C(=O)[*:2])[*:1]; Abu(4,4,4-F3) = N[C@@H](CC(F)(F)F)C(=O)O; X12 = O=C([C@H](CC1=CCCC1)N[*:1])[*:2]; NMeL = CN[C@@H](CC(C)C)C(=O)O; NMeA = CN[C@@H](C)C(=O)O
Experiments:
Type in all cases: cell-based
[1] = test system: U266B1 multiple myeloma cell line; assay: U266 assay (cell viability, Celltiter-Glo); conditions: Homo sapiens, U-266; I.A.
Experimental: Cells were plated in 384-well tissue culture plates and treated with compound dilutions in DMSO/media. Plates were incubated at 37° C., 5% CO2 for 48 hours. After 48 hours, Celltiter-Glo@ (Promega) was added to each well and luciferase signal was quantified using Tecan Infinite M1000 Pro for cell viability determination.

[2] = test system: HER3ss-Gluc; assay: HER3ss assay; conditions: HEK-293T T-rex cells, transient transfection, doxycycline, 24 h; read-out: HER3 ss IC50
Experimental: The mature domain of secreted luciferase from Gaussia princeps (GLuc) was cloned into pcDNA5/FRT/TO. The signal sequence plus four amino acids of the mature domain from HER3 ([…]) (SEQ ID NO:8) were cloned upstream of GLuc mature domain and used in transient transfection experiment. HEK-293T T-rex cells were cultured in Dulbecco's modified Eagle's medium with 10% FBS at 5% CO2. Cells were plated 1×10e6 cells per well in a 6-well plate and incubated for 6 h. Cells were transiently transfected with HER3ss-Gluc using Lipofectamine 2000 (Invitrogen). After overnight incubation, transfected cells were replated in a clear-bottomed, black 96-well plate at a density of 20,000 cells per well. Six hours after plating, the cells were treated with doxycycline (1 μg/ml) and increasing concentrations of the indicated compounds for 24 h. Secreted luciferase in the conditioned media was quantified by luminescence using the BioLux Gaussia Luciferase Assay Kit (New England Biolabs, Ipswich, Mass., USA) and a SpectraMax M5 plate reader (Molecular Devices).

[3] = test system: NCI-H929 multiple myeloma cell line; assay: H929 assay (cell viability, Celltiter-Glo); conditions: Homo sapiens, NCI-H929, read-out: H929 EC50
Method in brief: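 Cells plated in RPMI 1640 with 10% FBS and 2 mM glutamine, treated with compound dilutions in DMSO/media. Incubation 48 h at 37° C, 5% CO2. Viability from luciferase luminescence signal.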

[4] = test system: PD1-ss+10aa/Gaussia Luciferase; assay: Dox induced PD1-ss-Gluc assay; conditions: Flp-In 293 T-REx cells, doxycycline, 24 hours; read-out: PD1ss Gluc IC50
Method in brief: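 Stable Flp-In 293 T-REx line expressing doxycycline-inducible Gaussia luciferase fused to the PD1 signal sequence plus 10 amino acids. Cells plated the day before, then exposed to compound dilutions in DMSO/media containing doxycycline at 37 °C, 5% CO2.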

[5] = test system: TNFα-FL/Gaussia Luciferase; assay: Dox induced TNFα-FL-Gluc assay; conditions: read-out: TNFa FL Gluc IC50
Method in brief: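 Stable Flp-In 293 T-REx line expressing full-length TNFα (aa 1-233) fused at its C-terminus to Gaussia luciferase under doxycycline-inducible control. Cells plated the day before, then given compound dilutions in DMSO/media containing doxycycline and incubated at 37 °C, 5% CO2.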

[6] = test system: Prl-ss+10aa/Gaussia Luciferase; assay: Prl-ss-Gluc assay (constitutively active or 24 hr Dox inducible); conditions: read-out: Prl IC50
From the text: Constitutively Active Prl-ss-Gluc Assay
Flp-In 293 T-REx™ cells were transfected with pcDNA™5/FRT plasmid inserted with cDNA encoding Gaussia Luciferase fused to the 3′ end of cDNA encoding Prl signal sequence plus 10 amino acids (N-[…]-C) (SEQ ID NO:4). Transfected cells were selected for resistance to the selectable markers Hygromycin and Blasticidin to create a stable cell line that constitutively expressed the Prlss+10aa/Gaussia Luciferase fusion protein. The day before assay, cells were trypsinized and plated in 384-well tissue culture plates. The next day, culture media was removed from the wells and replaced with fresh media. Compound dilutions in DMSO/media were added to the wells and incubated at 37° C., 5% CO2.
24 hr Dox Inducible Prl-ss-Gluc Assay
Flp-In 293 T-REx™ cells were transfected with pcDNA™5/FRT/TO plasmid inserted with cDNA encoding Gaussia Luciferase fused to the 3′ end of cDNA encoding Prl signal sequence plus 10 amino acids (N-[…]-C) (SEQ ID NO:5). Transfected cells were selected for resistance to the selectable markers Hygromycin and Blasticidin to create a stable cell line that contained the Prl-ss+10aa/Gaussia Luciferase cDNA insert whose expression was regulated under the T-REx™ system. The day before assay, cells were trypsinized and plated in 384-well tissue culture plates. The next day, compound dilutions in DMSO/media containing doxycycline were added to the wells and incubated at 37° C., 5% CO2.

[7] = Flp-In 293 T-REx cells, doxycycline, 24 hours
[8] = Flp-In 293 T-REx cells, 24 hours

| EC50 [1] [nM] | IC50 [2] [nM] | EC50 ([3]; 48 hours, cell viability) [nM] | IC50 [4] [nM] | IC50 [5, 7] [nM] | IC50 [6, 8] [nM] | EC50 ([3]; I.A.) [nM] | IC50 ([5]; I.A.) [nM] | IC50 ([6]; I.A.) [nM] | Compound |
| --- | --- | --- | --- | --- | --- | --- | --- | --- | --- |
| > 25000 | 81 | 603 | 42 | 103 | 1090 | – | – | – | Cc1ccc(Cn2cc(C[C@H]3C(=O)N[C@@H](CC(C)C)C(=O)N(C)[C@@H](C)C(=O)O[C@H](CCC#N)C(=O)N[C@@H](CC(F)(F)F)C(=O)N(C)[C@@H](CC(C)C)C(=O)N[C@@H](CC(F)(F)F)C(=O)N3C)c3ccccc32)cc1 [C-83] (cyclo(L[NMeA][Butanoyl(2R-oxy,4-CN)][Abu(4,4,4-F3)][NMeL][Abu(4,4,4-F3)][X18])) |
| > 25000 | 88 | – | 934 | – | – | > 25000 | > 25000 | > 25000 | CC(C)C[C@@H]1NC(=O)[C@H](Cc2csc3ccc(Cl)cc23)N(C)C(=O)[C@H](CC(C)C)NC(=O)[C@H](CC2=CCCC2)N(C)C(=O)[C@H](CC(F)(F)F)NC(=O)[C@@H](CCC#N)OC(=O)[C@H](C)N(C)C1=O [C-81] (cyclo(L[NMeA][Butanoyl(2R-oxy,4-CN)][Abu(4,4,4-F3)][X21]L[NMeAla(5-Cl-benzothien-3-yl)])) |
| > 25000 | 72 | 608 | 37 | 77 | 802 | – | – | – | CC(C)C[C@@H]1NC(=O)[C@H](Cc2cn(Cc3ccc(Cl)cc3)c3ccccc23)N(C)C(=O)[C@H](CC(F)(F)F)NC(=O)[C@H](CC(C)C)N(C)C(=O)[C@H](CC(F)(F)F)NC(=O)[C@@H](CCC#N)OC(=O)[C@H](C)N(C)C1=O [C-84] (cyclo(L[NMeA][Butanoyl(2R-oxy,4-CN)][Abu(4,4,4-F3)][NMeL][Abu(4,4,4-F3)][X19])) |
| > 25000 | 33 | 3730 | 172 | 879 | – | – | – | > 25000 | CC(C)C[C@@H]1NC(=O)[C@H](CC(C)C)N(C)C(=O)[C@H](CC(F)(F)F)NC(=O)[C@@H](CCC#N)OC(=O)[C@H](C)N(C)C(=O)[C@H](CC2=CCCC2)NC(=O)[C@H](Cc2csc3ccc(Cl)cc23)N(C)C1=O [C-89] (cyclo(L[NMeAla(5-Cl-benzothien-3-yl)][X12][NMeA][Butanoyl(2R-oxy,4-CN)][Abu(4,4,4-F3)][NMeL])) |
| > 25000 | 98 | 9880 | 813 | 3860 | – | – | – | > 25000 | CC(C)C[C@@H]1NC(=O)[C@H](Cc2csc3ccc(Cl)cc23)N(C)C(=O)[C@H](CC(F)(F)F)NC(=O)[C@H](CC(C)C)N(C)C(=O)[C@H](CC(C)C)NC(=O)[C@@H](CCC#N)OC(=O)[C@H](C)N(C)C1=O [C-92] (cyclo(L[NMeA][Butanoyl(2R-oxy,4-CN)]L[NMeL][Abu(4,4,4-F3)][NMeAla(5-Cl-benzothien-3-yl)])) |
| > 25000 | 65 | 5640 | 149 | 1380 | – | – | – | > 25000 | CC(C)C[C@@H]1NC(=O)[C@H](CC(C)C)N(C)C(=O)[C@H](CC(F)(F)F)NC(=O)[C@@H](CCC#N)OC(=O)[C@H](C)N(C)C(=O)[C@H](CC2=CCCCC2)NC(=O)[C@H](Cc2csc3ccc(Cl)cc23)N(C)C1=O [C-88] (cyclo(L[NMeAla(5-Cl-benzothien-3-yl)][Ala(1-cyclohexenyl)][NMeA][Butanoyl(2R-oxy,4-CN)][Abu(4,4,4-F3)][NMeL])) |
| > 25000 | 98 | 649 | 42 | 104 | 506 | – | – | – | CC(C)C[C@@H]1NC(=O)[C@H](Cc2cn(Cc3ccc(Br)cc3)c3ccc(F)cc23)N(C)C(=O)[C@H](CC(F)(F)F)NC(=O)[C@H](CC(C)C)N(C)C(=O)[C@H](CC(F)(F)F)NC(=O)[C@@H](CCC#N)OC(=O)[C@H](C)N(C)C1=O [C-82] (cyclo(L[NMeA][Butanoyl(2R-oxy,4-CN)][Abu(4,4,4-F3)][NMeL][Abu(4,4,4-F3)][X13])) |
